Experimental data: patent US20090298708A1, “2'-DEOXY-2'-FLUORO-BETA-D-ARABINONUCLEOSIDE 5'-TRIPHOSPHATES AND THEIR USE IN ENZYMATIC NUCLEIC ACID SYNTHESIS” (priority 2006, published 2009)

Key:
[1] = biological target: Phusion High-Fidelity DNA polymerase (Ph) (UniProt P61875); settings: apparent fidelity, all 2'F-araNTP and dNTP dropouts; 55 C
MMLV-RT = biological target: T1, MMLV-RT (Moloney murine leukemia virus, UniProt P03355); assay: Primer extension assay with MMLV-RT; assay type: biochemical; settings: MMLV-RT; 37° C.; DNA template PF22 (T/U triphosphates) or PF24 (C triphosphates); three contiguous units
T1 construct: Reverse transcriptases (RT): • MMLV-RT (MMLV or MM; source: Fermentas); purchased Fermentas
Description: (§1) Primer extension assays were used to assess the incorporation of 2′F-araNTP on the various DNA templates (Table 1). The DNA primer (PF20) was first radioactively labeled at the 5′-hydroxyl terminus with a radioactive phosphorus probe and the enzyme T4 polynucleotide kinase (T4 PNK) (see Example 1 for General Methods). To assess the incorporation of 2′F-araNTPs, the primer and template were annealed, and the nucleoside 5′-triphosphates added in the presence of enzyme under the conditions specified in Table 2. Time points were obtained by analyzing small aliquots from the reaction mixture through polyacryamide gel electrophoresis (PAGE) and autoradiography.
(§2) Primer extension assays were used to assess the incorporation efficiency of contiguous 2′F-ara(T/C)TPs compared to 2′F-r(U/C)TP on a DNA template (e.g. PF22 or PF24). To this end, a DNA template (e.g. PF22: FIGS. 15, 16, 17A, 18, 21A; PF24: FIGS. 17B, 19, 20, 21B), primer and the appropriate NTPs (e.g. combination of dATP/dCTP/dGTP/ and NTP, where N=dT, 2′F-araT, 2′F-rU, or rU (FIGS. 15, 16, 17A, 18, 21A); or combination of dATP/dGTP/dTTP/ and NTP, where N=dC, 2′F-araC, 2′F-rC, or rC (FIGS. 17B, 19, 20, 21B)), were incubated in the presence one of MMLV-RT, 9N, HIV or DV polymerase. The protocols and conditions are described in Example 2 and Table 2.
(§3) Unless otherwise noticed in the Examples described below, the conditions used in the primer extension assays, such as dNTP concentration, reaction temperatures, concentration of Mg^2+, and reaction buffers (provided by the manufacturers, except for the HIV buffer which was prepared in-house) are shown in Table 2.
(§4) Primer extension assays were used to assess the incorporation of 2′F-araTTP on the DNA template (PF22). The DNA primer (PF20) was first radioactively labeled at the 5′-hydroxyl terminus with a radioactive phosphorus probe and the enzyme T4 polynucleotide kinase (T4 PNK) according to the manufacturer's specifications (MBI Fermentas Life Sciences, Burlington, ON). Incorporation of the ^32P label was accomplished in reaction mixtures consisting of DNA substrate (200 pmol), 2 μl loxreaction buffer (Buffer A for forward reaction: 500 mM Tris-HCl, pH 7.6 at 25° C., 100 mM MgCl2, 50 mM DTT, 1 mM spermidine and 1 mM EDTA), 1 μl T4 PNK enzyme solution (10 U/1 μl in a solution of 20 mM Tris-HCl, pH 7.5, 25 mM KCl, 0.1 mM EDTA, 2 mM DTT and 50% glycerol), 6 μl [γ-^32P]-ATP solution (6000 Ci/mmol, 10 mCi/ml; Amersham Biosciences, Inc.) and autoclaved sterile water to a final volume of 20 μl. The reaction mixture was incubated for about 45-60 min at 37° C., followed by a second incubation for 10 min at 95° C. to heat denature and deactivate the kinase enzyme. The solution was purified according to a standard protocol and the isolated yield of 5′-^32P-DNA following gel extraction averages 50%. The pure labeled samples were kept at −20° C. for future use.
(§5) Usually 2 or 3 folds of cold (unlabeled) DNA primer were combined with the radioactive primer. Then primer to template was mixed together with the final concentration at 85 nM for the primer and 255 nM for the template (i.e. the primer:template=1:3 molar ratio). The primer and template were heated at 95° C. for 5 min and annealed at 4° C. for at least two hours before use. In an Eppendorf tube, the following reagents, 5× or 10× buffer, nucleoside 5′-triphosphates (DATP, dGTP, dCTP, 2′F-araTTP at the same concentrations; see legend of FIG. 2), water, the primer and template mixture, were added together according to pre-calculated reaction volume (20 μL) and concentrations (see reaction conditions in Table 2). Mineral oil (20 μL) was usually used to prevent evaporation. The reaction mixture was incubated at either 37° C. or 55° C. and one of the various enzymes tested was added to initiate the primer extension reactions. […]

HIV-1 RT (recombinant) = biological target: T2, HIV-1 RT (recombinant) (Human immunodeficiency virus type 1 group M subtype B, UniProt P04585); assay: Primer extension assay with HIV-1 RT; assay type: biochemical; settings: 37° C., DNA template PF22 (T/U triphosphates) or PF24 (C triphosphates), three contiguous units
T2 construct: Reverse transcriptases (RT): • MMLV-RT (MMLV or MM; source: Fermentas); • HIV-1 RT (recombinant); purchased Worthington Biochemical Corp
Description: as §1, §2, §3, §4, §5

DNA polymerases = assay: Primer extension assays, statement for all enzymes studied; assay type: biochemical; settings: DNA template PF24; 9N, HIV, MMLV, DV
[2] = test system: Phusion DNA polymerase (Ph); assay: Dropout assay, fidelity of incorporation by Ph; assay type: biochemical; settings: 30 min reaction time, 55° C., templates PF21, PF41
Description: FIG. 13 illustrates the fidelity of 2′F-araNTP incorporation on pyrimidine rich DNA template PF21 by Ph DNA polymerase. […] Template PF41 and primer PF20 are shown; PF39 is a 27-nt DNA control.
FIG. 14 illustrates the fidelity of 2′F-araNTP incorporation on purine rich DNA template PF41 by Ph DNA polymerase. The base sequence of the primer, DNA template and resulting terminated products in different dropout conditions (condition 1-5) is shown. […] Lane 1: dNTPs; 2: drop out dCTP (i.e. dATP, dGTP and dTTP, shorten as AGT, same coding for lanes 3-5), lane 6: 2′F-araNTPs; 7: drop out 2′F-araCTP (i.e. 2′F-araATP, 2′F-araGTP, 2′F-araTTP, shorten as AGT; same coding for lanes 8-10). The template PF41 and the primer PF20 are shown; PF39 is a 27mer DNA control.
For example, the 2′F-araNTP of interest is removed from the pool, and the ensuing synthesis on DNA template (e.g. PF21, PF23, PF41, PF43) assessed in comparison with a control reaction containing all four 2′F-araNTPs. For comparison, dropout experiments containing dNTPs are run in parallel. […] Apparent fidelity was calculated according to the equation:
(§6) 1−[(% full-length−2′F-araNTP)/(% full-length+2′F-araNTP)]
In one of these assays, 2′F-araATP was removed from the pool, and the ensuing synthesis assessed in comparison with a control reaction containing all four 2′F-araNTPs. For comparison, dropout experiments containing dNTPs were run in parallel (FIGS. 11-14).
Phusion DNA polymerase (Ph) was evaluated for fidelity of 2′F-araNTP incorporation using the same dropout assay. All four dropout experiments were conducted with the same DNA template PF21 (FIG. 13), or PF41 (FIG. 14).

DV DNA polymerase = biological target: T3, DV DNA polymerase (Pyrococcus sp., UniProt Q51334, D141A/DEL493-1029/E143A); assay: Dropout assay, fidelity of incorporation by DV; assay type: biochemical, Pyrococcus species GB-D; settings: 30 min reaction time, 25 μM triphosphates, 55° C., template A: PF41, G: PF43, T: PF21, C: PF23
T3 construct: purchased New England Biolabs; host or cells: E. coli
Protocol: (§7) FIG. 11A illustrates the fidelity of 2′F-araATP incorporation on a DNA template PF41 by DV and 9N DNA polymerases. Reaction conditions: 0.8 unit DV and 9N, 25 μM triphosphates at 55° C. in 30 μL reaction volume; incubation time: 30 min. Group 1 & 5: dNTPs; 2 & 6: dropout of dATP; 3 & 7: 2′F-araNTPs, 4 & 8: dropout of 2′F-araATP; 27mer control DNA is PF39.
(§8) FIG. 11B illustrates the fidelity of 2′F-araGTP incorporation on DNA template PF43 by DV and 9N DNA polymerases. Reaction conditions: primer/template (1:1 molar ratio): 100 nM; 0.4 μL (0.8 unit) DV, 9N, 25 μM triphosphate concentration at 55° C. in 30 μL reaction volume. Reaction time for dNTPs (group 1, 5) was 30 min and others were shown above. Group 1 & 5: dNTPs; 2 & 6: drop out dGTP (i.e. dTTP, dCTP and dATP), 3 & 7: 2TF-araNTPs, 4 & 8: drop out 2′F-araGTP; lane P is the template PF41 as the full-length product control; PF39 is a 27-nt DNA control. All samples were analyzed by 12% denaturing PAGE.
(§9) FIG. 12A illustrates the fidelity of 2′F-araTTP incorporation by DV and 9N DNA polymerases on a DNA template PF21. Reaction conditions: 100 nM primer/template (1:1 molar ratio); 0.4 μL (0.8 unit) DV or 9N, 25 μM triphosphate concentration at 55° C. in 30 μL reaction volume. Reaction time for dNTPs (group 1, 5) was 30 min and others were shown above. Groups 1 & 5: dNTPs; 2 & 6: drop out dTTP; 3 & 7: 2′F-araNTPs; 4 & 8: drop out 2′F-araTTPs. in B: group 1 & 5: dNTPs; 2 & 6: drop out dCTP; 3 & 7: 2′F-araNTPs; 4 & 8: drop out 2′F-araCTPs; PF39 is a 27-nt DNA control. All samples were analyzed by 12% denaturing PAGE.
as §9, with “12B” for “12A”, “fidelity study” for “fidelity”, “2′F-araCTP” for “2′F-araTTP”, “PF23.” for “PF21.”, “(groups” for “(group”, “Groups” for “Groups 1 & 5: dNTPs; 2 & 6: drop out dTTP; 3 & 7: 2′F-araNTPs; 4 & 8: drop out 2′F-araTTPs. in B: group”
(§10) “Dropout assays” (Ichida et al. (2005) J. Am. Chem. Soc. 127:2802-2803) were conducted to assess the fidelity of 2′F-araNTP incorporation (each of 2′F-araATP, 2′F-araCTP, 2′F-araGTP and 2′F-araTTP) by various DNA polymerases (FIGS. 11-14). For example, the 2′F-araNTP of interest is removed from the pool, and the ensuing synthesis on DNA template (e.g. PF21, PF23, PF41, PF43) assessed in comparison with a control reaction containing all four 2′F-araNTPs. For comparison, dropout experiments containing dNTPs are run in parallel. Full-length DNA and FANA products are obtained when all four dNTPs (group 1 and 5) and 2′F-araNTPs (groups 3 and 7) were available, however, some pausing may occur during synthesis of the arabinose modified oligomers. Apparent fidelity was calculated according to the equation:
as §6
(§11) at 30 min reaction time (sample equation for dNTP values). >99% means that the full-length product was not detectable in our dropout assays.
(§12) “Dropout assays” (Ichida et al. (2005) J. Am. Chem. Soc. 127:2802-2803) were conducted to assess apparent fidelity of 2′F-araNTP incorporation by DV and 9N. In one of these assays, 2′F-araATP was removed from the pool, and the ensuing synthesis assessed in comparison with a control reaction containing all four 2′F-araNTPs. For comparison, dropout experiments containing dNTPs were run in parallel (FIGS. 11-14). Full-length DNA and FANA products were obtained when all four dNTPs (group 1 and 5) and 2′F-araNTPs (groups 3 and 7) were available, although some pausing was evident during synthesis of the arabinose modified oligomers.

9N DNA polymerase = biological target: T4, 9N DNA polymerase (Thermococcus sp., UniProt Q56366, E143D); assay: Dropout assay, fidelity of incorporation by 9N; assay type: biochemical, Thermococcus species (strain 9° N-7); settings: 30 min reaction time, 25 μM triphosphates, 55° C., template A: PF41, G: PF43, T: PF21, C: PF23
T4 construct: purchased New England Biolabs; host or cells: E. coli
Protocol: as §7, §8, §9
as §9, with “12B” for “12A”, “fidelity study” for “fidelity”, “2′F-araCTP” for “2′F-araTTP”, “PF23.” for “PF21.”, “(groups” for “(group”, “Groups” for “Groups 1 & 5: dNTPs; 2 & 6: drop out dTTP; 3 & 7: 2′F-araNTPs; 4 & 8: drop out 2′F-araTTPs. in B: group”
as §10, §6, §11, §12

Compound | activity [1] [%] | Order of efficiency of incorporation (MMLV-RT) | Order of efficiency of incorporation (HIV-1 RT (recombinant)) | % Apparent Fidelity, dNTP [2] [%] | % Apparent Fidelity, dNTP (DV DNA polymerase) [%] | % Apparent Fidelity, dNTP (9N DNA polymerase) [%] | also measured
TAATACGACTCACTATA / AGAGCCTGAGAAGAGAGTATAGTGAGTCGTATTA [PF20/PF41 primer-template] | > 99 | – | – | – | – | – | –
TAATACGACTCACTATA / TTTGCCACTCTTCTCCCTATAGTGAGTCGTATTA [PF20/PF21 primer-template] | > 99 | – | – | – | – | – | –
Nc1ccn([C@@H]2O[C@H](COP(=O)(O)OP(=O)(O)OP(=O)(O)O)[C@@H](O)[C@H]2O)c(=O)n1 [rCTP, reference compound] | – | dCTP~2′F-rCTP ≧ 2′F-araCTP > CTP | dCTP~2′F-rCTP ≧ 2′F-araCTP > CTP | – | – | – | order of incorporation efficiency (DNA polymerases): dCTP=2′F-rCTP>2′F-araCTP >>rCTP
Nc1ncnc2c1ncn2[C@H]1C[C@H](O)[C@@H](COP(=O)(O)OP(=O)(O)OP(=O)(O)O)O1 [dATP] | – | – | – | >99 | 1 | 80 | –
O=c1ccn([C@@H]2O[C@H](COP(=O)(O)OP(=O)(O)OP(=O)(O)O)[C@@H](O)[C@H]2O)c(=O)[nH]1 [rUTP, reference compound] | – | dTTP > 2′F-araTTP > 2′F-rUTP > UTP | dTTP > 2′F-araTTP > 2′F-rUTP > UTP | – | – | – | –
Nc1nc2c(ncn2[C@H]2C[C@H](O)[C@@H](COP(=O)(O)OP(=O)(O)OP(=O)(O)O)O2)c(=O)[nH]1 [dGTP] | – | – | – | >99 | 62 | 84 | –
